Values belong to the compound of their own block, whether it stands above or below them. Calls of active or inactive are those of the source. The rule behind the calls is not given here. Peptide text beside a SMILES is read from it.
Legend:
[1] = Cmax in C57BL/6 mouse at 1500 nmol/kg, sc measured upto 48 hrs by LC-MS analysis; type: ADME, organism-based; design: route subcutaneous, dose 1500 nmol/kg, time <=48; conditions: in vivo
Mus musculus [2] = assay: Inhibition of IUB288-induced glucose elevation in C57BL/6 mouse at 1500 nmol/kg, sc pretreated for 4 to 8 hrs followed by IUB288 stimulation and measured upto 4 hrs; type: functional, organism-based; conditions: time 8-12 hrs
[3] = target: T1, Glucagon-like peptide 1 receptor (Mus musculus, UniProt O35659); assay: Antagonist activity at mouse GLP1R expressed in CHO-K1 cells assessed as inhibition of GLP1-induced cAMP production; type: functional, cell-based
T1 sequence (O35659 whole entry): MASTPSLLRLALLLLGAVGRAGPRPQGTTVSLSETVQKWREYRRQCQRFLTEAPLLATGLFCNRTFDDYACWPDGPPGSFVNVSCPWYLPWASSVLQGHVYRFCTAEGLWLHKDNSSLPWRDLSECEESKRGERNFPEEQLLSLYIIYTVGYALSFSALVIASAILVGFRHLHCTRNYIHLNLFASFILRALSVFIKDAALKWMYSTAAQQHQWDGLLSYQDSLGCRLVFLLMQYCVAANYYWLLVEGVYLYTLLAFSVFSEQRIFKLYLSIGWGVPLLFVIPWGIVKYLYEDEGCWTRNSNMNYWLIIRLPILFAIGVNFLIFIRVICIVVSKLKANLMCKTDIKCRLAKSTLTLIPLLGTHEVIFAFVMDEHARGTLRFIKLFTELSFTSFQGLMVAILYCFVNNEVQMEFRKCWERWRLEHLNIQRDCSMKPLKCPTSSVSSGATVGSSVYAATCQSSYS

Glucagon receptor [4] = target: Glucagon receptor (Mus musculus, UniProt Q61606); assay: Antagonist activity at mouse GCGR expressed in CHO-K1 cells assessed as inhibition of glucogon-induced cAMP production; type: functional, cell-based
Mus musculus [5] = assay: Inhibition of IUB288-induced glucose elevation in C57BL/6 mouse at 1500 nmol/kg, sc pretreated for 24 hrs followed by IUB288 stimulation and measured upto 4 hrs; type: functional, organism-based; conditions: time 28.0 hrs
[6] = target: T2, Glucagon-like peptide 1 receptor (Mus musculus) (UniProt O35659); assay: Antagonist activity at mouse GLP1R expressed in CHO-K1 cells assessed as inhibition of GLP1-induced cAMP production relative to control; type: functional, cell-based; conditions: filed as antagonist, concentration not given here
T2 sequence (whole entry): T1 sequence (O35659 whole entry)

[7] = AUC in C57BL/6 mouse at 1500 nmol/kg, sc measured upto 48 hrs by LC-MS analysis; type: ADME, organism-based; design: route subcutaneous, dose 1500 nmol/kg, time <=48; conditions: in vivo
[8] = Toxicity in C57BL/6 mouse assessed as adverse local and systemic responses at 1500 nmol/kg, sc; conditions: in vivo
[9] = target: Glucagon receptor (Mus musculus) (UniProt Q61606); assay: Antagonist activity at mouse GCGR expressed in CHO-K1 cells assessed as inhibition of glucogon-induced cAMP production relative to control; type: functional, cell-based; conditions: filed as antagonist, concentration not given here
Glucagon receptor [10] = target: T3, Glucagon receptor (Homo sapiens, UniProt P47871); assay: Antagonist activity at human GCGR expressed in HEK293 cells assessed as inhibition of glucogon-induced cAMP production; type: functional, cell-based
[11] = target: T4, Gastric inhibitory polypeptide receptor (Homo sapiens, UniProt P48546); assay: Antagonist activity at human GIPR expressed in HEK293 cells assessed as inhibition of GIP-induced cAMP production; type: functional, cell-based
T4 sequence (P48546 whole entry): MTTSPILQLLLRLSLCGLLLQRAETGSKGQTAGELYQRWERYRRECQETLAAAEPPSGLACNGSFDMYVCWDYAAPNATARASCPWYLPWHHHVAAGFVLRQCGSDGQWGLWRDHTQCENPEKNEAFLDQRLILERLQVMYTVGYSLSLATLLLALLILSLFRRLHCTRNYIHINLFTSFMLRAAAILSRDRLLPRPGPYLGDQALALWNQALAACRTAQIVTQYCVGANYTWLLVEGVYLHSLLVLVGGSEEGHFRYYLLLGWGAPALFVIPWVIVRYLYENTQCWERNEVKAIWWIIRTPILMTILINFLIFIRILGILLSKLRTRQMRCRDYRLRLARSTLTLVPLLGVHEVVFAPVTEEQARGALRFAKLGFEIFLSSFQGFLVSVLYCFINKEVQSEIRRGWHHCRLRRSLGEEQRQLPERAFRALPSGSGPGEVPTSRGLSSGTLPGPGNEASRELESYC

[12] = target: T5, Gastric inhibitory polypeptide receptor (Mus musculus) (UniProt Q0P543); assay: Antagonist activity at mouse GIPR expressed in CHO-K1 cells assessed as inhibition of GIP-induced cAMP production relative to control; type: cell-based; conditions: filed as antagonist, concentration not given here
T5 sequence (whole entry): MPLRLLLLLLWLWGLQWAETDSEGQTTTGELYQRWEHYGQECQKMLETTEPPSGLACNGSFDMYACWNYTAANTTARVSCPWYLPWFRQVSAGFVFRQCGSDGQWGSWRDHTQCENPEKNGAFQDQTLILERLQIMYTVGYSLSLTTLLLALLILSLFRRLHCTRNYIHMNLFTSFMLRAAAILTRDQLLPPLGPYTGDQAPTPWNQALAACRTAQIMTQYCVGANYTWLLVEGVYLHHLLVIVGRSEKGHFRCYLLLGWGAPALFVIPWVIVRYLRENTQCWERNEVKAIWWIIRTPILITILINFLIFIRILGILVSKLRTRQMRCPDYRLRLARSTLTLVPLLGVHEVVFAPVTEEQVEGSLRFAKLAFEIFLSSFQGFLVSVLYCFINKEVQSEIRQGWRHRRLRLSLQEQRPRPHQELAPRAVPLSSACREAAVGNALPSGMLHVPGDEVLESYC

[13] = target: T6, Gastric inhibitory polypeptide receptor (Homo sapiens) (UniProt P48546); assay: Antagonist activity at human GIPR expressed in HEK293 cells assessed as inhibition of GIP-induced cAMP production relative to control; type: functional, cell-based; conditions: filed as antagonist, concentration not given here
T6 sequence (whole entry): T4 sequence (P48546 whole entry)

[14] = Chemical stability of compound in PBS buffer incubated for 5 to 7 days by LC-MS analysis; type: physicochemical; conditions: time 5-7 day
[15] = target: T7, Gastric inhibitory polypeptide receptor (Mus musculus, UniProt Q0P543); assay: Antagonist activity at mouse GIPR expressed in CHO-K1 cells assessed as inhibition of GIP-induced cAMP production; type: cell-based
T7 sequence (Q0P543 whole entry): T5 sequence (whole entry)

[16] = Half life in C57BL/6 mouse at 1500 nmol/kg, sc measured upto 48 hrs by LC-MS analysis; type: ADME, organism-based; conditions: in vivo
[17] = target: Glucagon-like peptide 1 receptor (Homo sapiens, UniProt P43220); assay: Antagonist activity at human GLP-1R expressed in HEK293 cells assessed as inhibition of GLP1-induced cAMP production; type: functional, cell-based
Glucagon receptor [18] = target: T3, Glucagon receptor; assay: Antagonist activity at human GCGR expressed in HEK293 cells assessed as inhibition of glucogon-induced cAMP production relative to control; type: functional, cell-based; conditions: filed as antagonist, concentration not given here
Glucagon receptor [19] = target: T3, Glucagon receptor; assay: Antagonist activity at human GCGR expressed in HEK293 cells assessed as inhibition of glucogon-induced cAMP production by schild plot analysis; type: functional, cell-based; conditions: dose 0.1-1.6 µM
[20] = target: Glucagon receptor (Rattus norvegicus) (UniProt P30082); assay: Displacement of 125I-glucagon from GCGR of rat liver membrane; type: cell membranes
Glucagon receptor [21] = target: T3, Glucagon receptor; assay: Partial antagonist activity at human GCGR expressed in HEK293 cells assessed as inhibition of glucogon-induced cAMP production; type: functional, cell-based; conditions: filed as antagonist
Glucagon receptor [22] = target: T3, Glucagon receptor; assay: Displacement of 125I-glucagon from human GCGR expressed in HEK293 cells membranes incubated for 6 hrs by liquid scintillation counting method; type: cell membranes, Membrane

T3 sequence (P47871 whole entry): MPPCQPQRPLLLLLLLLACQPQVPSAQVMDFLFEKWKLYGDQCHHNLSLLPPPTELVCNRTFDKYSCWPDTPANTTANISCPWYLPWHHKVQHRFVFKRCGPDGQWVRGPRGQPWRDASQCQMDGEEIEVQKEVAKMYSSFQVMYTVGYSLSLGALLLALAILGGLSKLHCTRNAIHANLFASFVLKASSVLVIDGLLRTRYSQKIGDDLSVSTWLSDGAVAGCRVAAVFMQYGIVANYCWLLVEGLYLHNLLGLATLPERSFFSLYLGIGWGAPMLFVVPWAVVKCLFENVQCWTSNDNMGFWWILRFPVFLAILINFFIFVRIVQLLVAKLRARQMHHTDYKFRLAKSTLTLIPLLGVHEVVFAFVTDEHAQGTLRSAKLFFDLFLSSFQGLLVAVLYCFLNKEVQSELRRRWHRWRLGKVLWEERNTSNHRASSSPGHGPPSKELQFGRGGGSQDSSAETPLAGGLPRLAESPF
Sequence of Glucagon receptor (Rattus norvegicus) (P30082 whole entry): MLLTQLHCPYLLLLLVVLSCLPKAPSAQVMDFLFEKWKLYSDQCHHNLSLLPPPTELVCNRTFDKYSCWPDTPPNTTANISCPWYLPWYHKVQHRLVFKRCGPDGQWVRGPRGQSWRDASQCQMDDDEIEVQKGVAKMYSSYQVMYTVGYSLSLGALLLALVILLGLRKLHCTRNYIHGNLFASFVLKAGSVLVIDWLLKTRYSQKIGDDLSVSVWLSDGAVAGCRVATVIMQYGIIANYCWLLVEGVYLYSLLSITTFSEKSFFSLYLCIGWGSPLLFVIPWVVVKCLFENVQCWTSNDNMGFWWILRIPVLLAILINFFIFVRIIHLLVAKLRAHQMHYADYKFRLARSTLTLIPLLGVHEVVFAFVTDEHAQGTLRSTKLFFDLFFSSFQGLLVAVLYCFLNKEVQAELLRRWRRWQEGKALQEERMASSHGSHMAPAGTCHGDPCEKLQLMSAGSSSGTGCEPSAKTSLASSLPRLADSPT
Sequence of Glucagon-like peptide 1 receptor (Homo sapiens, UniProt P43220) (P43220 whole entry): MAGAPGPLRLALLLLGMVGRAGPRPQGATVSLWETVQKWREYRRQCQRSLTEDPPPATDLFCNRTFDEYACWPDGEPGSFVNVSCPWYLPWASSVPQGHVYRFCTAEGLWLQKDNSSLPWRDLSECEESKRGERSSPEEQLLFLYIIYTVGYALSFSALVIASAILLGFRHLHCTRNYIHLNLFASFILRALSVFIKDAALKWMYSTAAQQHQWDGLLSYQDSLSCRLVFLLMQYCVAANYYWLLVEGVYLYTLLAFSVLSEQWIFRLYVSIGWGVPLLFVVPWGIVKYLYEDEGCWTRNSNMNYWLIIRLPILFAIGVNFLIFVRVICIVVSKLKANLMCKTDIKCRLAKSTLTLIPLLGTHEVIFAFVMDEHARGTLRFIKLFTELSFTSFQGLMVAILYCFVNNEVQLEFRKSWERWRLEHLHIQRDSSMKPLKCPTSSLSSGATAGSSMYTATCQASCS
Sequence of Glucagon receptor (Mus musculus, UniProt Q61606) (Q61606 whole entry): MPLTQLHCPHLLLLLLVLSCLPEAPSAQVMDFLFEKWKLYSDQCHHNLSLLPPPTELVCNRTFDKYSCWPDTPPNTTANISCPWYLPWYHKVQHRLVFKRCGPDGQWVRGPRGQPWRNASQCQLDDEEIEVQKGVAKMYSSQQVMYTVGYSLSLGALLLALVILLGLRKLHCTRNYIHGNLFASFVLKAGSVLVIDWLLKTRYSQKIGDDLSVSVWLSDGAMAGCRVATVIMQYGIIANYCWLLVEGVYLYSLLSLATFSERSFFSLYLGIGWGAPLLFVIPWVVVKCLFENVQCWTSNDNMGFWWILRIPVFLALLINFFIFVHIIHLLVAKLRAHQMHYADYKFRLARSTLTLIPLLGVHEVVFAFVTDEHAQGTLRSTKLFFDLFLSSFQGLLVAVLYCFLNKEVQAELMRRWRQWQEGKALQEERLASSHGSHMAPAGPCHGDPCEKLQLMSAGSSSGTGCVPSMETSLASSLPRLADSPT
Sequence of Glucagon receptor (Mus musculus) (Q61606 whole entry): as above

Cmax [1]: 3.31 µM
IC50 [3]: 0.131 µM
IC50 (Glucagon receptor [4]): 0.00053 µM
inhibition [6]: 99%
AUC at 48 h [7]: 37.4 µM·h
inhibition [9]: 92%
IC50 (Glucagon receptor [10]): 0.00043 µM
IC50 [11]: 0.06 µM
inhibition [12]: 97%
inhibition [13]: 96%
Stabilty [14]: Stable
IC50 [15]: 0.125 µM
half-life [16]: 6.73 h
IC50 [17]: 0.099 µM
inhibition (Glucagon receptor [18]): 100%
Compound: CCCCCCCCCCCCCCCC(=O)N[C@@H](CCC(=O)N[C@@H](CCC(=O)NCCCC[C@H](NC(=O)[C@H](CC(=O)O)NC(=O)[C@H](CO)NC(=O)[C@@H](NC(=O)[C@@H](O)Cc1ccccc1)[C@@H](C)O)C(=O)N[C@@H](CO)C(=O)N[C@@H](CCCCN)C(=O)N[C@@H](Cc1ccc(O)cc1)C(=O)N[C@@H](CC(C)C)C(=O)N[C@@H](CC(=O)O)C(=O)N[C@@H](CO)C(=O)N[C@@H](CCCNC(=N)N)C(=O)N[C@@H](CCCNC(=N)N)C(=O)N[C@@H](C)C(=O)N[C@@H](CCC(N)=O)C(=O)N[C@@H](CC(=O)O)C(=O)N[C@@H](Cc1ccccc1)C(=O)N[C@H](C(=O)N[C@@H](CCC(N)=O)C(=O)N[C@@H](Cc1c[nH]c2ccccc12)C(=O)N[C@@H](CC(C)C)C(=O)N[C@@H](CCSC)C(=O)N[C@@H](CC(=O)O)C(=O)N[C@H](C(N)=O)[C@@H](C)O)C(C)C)C(=O)O)C(=O)O (HELM PEPTIDE1{[O=C([C@@H](O)Cc1ccccc1)[*:2]].T.S.D.K.S.K.Y.L.D.S.R.R.A.Q.D.F.V.Q.W.L.M.D.T.[am]}|PEPTIDE2{[CCCCCCCCCCCCCCCC(=O)[*:2]].[gGlu].[gGlu]}$PEPTIDE1,PEPTIDE2,5:R3-3:R2$$$V2.0)
inhibition (Mus musculus [2]): Active
inhibition (Mus musculus [5]): Active
Activity [8]: Non-Toxic

Activity (Glucagon receptor [19]): inactive
Activity ([20]; filed as antagonist): 41%
Activity (Glucagon receptor [21]): Active
Compound: CSCC[C@H](NC(=O)[C@H](CC(C)C)NC(=O)[C@H](Cc1c[nH]c2ccccc12)NC(=O)[C@H](CCC(N)=O)NC(=O)[C@@H](NC(=O)[C@H](Cc1ccccc1)NC(=O)[C@H](CC(=O)O)NC(=O)[C@H](CCC(N)=O)NC(=O)[C@H](C)NC(=O)[C@H](CCCN=C(N)N)NC(=O)[C@H](CCCN=C(N)N)NC(=O)[C@H](CO)NC(=O)[C@H](CC(=O)O)NC(=O)[C@H](CC(C)C)NC(=O)[C@H](Cc1ccc(O)cc1)NC(=O)[C@H](CCCCN)NC(=O)[C@H](CO)NC(=O)[C@H](Cc1ccc(O)cc1)NC(=O)[C@H](CCC(=O)O)NC(=O)[C@H](CO)NC(=O)[C@@H](NC(=O)[C@H](Cc1ccccc1)NC(=O)[C@@H](NC(=O)CNC(=O)[C@H](CCC(N)=O)NC(=O)[C@@H](N)CO)[C@@H](C)O)[C@@H](C)O)C(C)C)C(=O)N[C@@H](CC(N)=O)C(=O)N[C@H](C(N)=O)[C@@H](C)O

Activity [20]: 0.33%
IC50 (Glucagon receptor [22]): 10 µM
Compound: H-TSEYSKYLDSRRAQDFVQWLMNT-NH2
